Results from US8911771B2, “Fluid application device and method” (Otsuka America Pharmaceutical, Inc., priority 2004, dated 2014).

Test system: wide range of bacteria (1050 organisms; clinical isolates from a number of bacterial and fungal species)
Test: in vitro minimum inhibitory concentration (MIC) testing
Format: cell-based
Conditions: concentration of olanexidine solution inhibiting >95% of 1050 organisms
Excerpt: The bacteria included in the MIC testing study included clinical isolates from a number of bacterial and fungal species. The MIC method is a widely accepted methodology that is useful for determining and comparing in vitro antimicrobial activity, while the Pig Skin Model is useful for determining activity under simulated conditions of use. The following chart summarizes the results obtained with the Pig Skin Model: […]

CCCCCCCCNC(=N)NC(=N)NCc1ccc(Cl)c(Cl)c1 [olanexidine, 1-(3,4-dichlorobenzyl)-5-octylbiguanide]
MIC: ≤ 32 mg/L
